Test results: ChEMBL document CHEMBL1153785, “Antimalarial activity of azafluorenone alkaloids from the Australian tree Mitrephora diversifolia” (J Nat Prod, 2009)

Assays:
[1] = test system: Plasmodium falciparum; assay: Antimalarial activity against chloroquine-sensitive Plasmodium falciparum 3D7 at 120 uM after 72 hrs by DAPI staining method; assay type: functional
[2] = test system: Plasmodium falciparum; assay: Antimalarial activity against chloroquine-resistant Plasmodium falciparum Dd2 at 120 uM after 72 hrs by DAPI staining method
[3] = test system: HEK293; assay: Cytotoxicity against human HEK293 cells up to 120 uM after 72 hrs by Alamar blue assay; assay type: cell-based; conditions: hek293, 72 h
[4] = test system: Plasmodium falciparum; assay: Antimalarial activity against chloroquine-resistant Plasmodium falciparum Dd2 after 72 hrs by DAPI staining method; conditions: Dd2, 72 h
[5] = test system: Plasmodium falciparum; assay: Antimalarial activity against chloroquine-sensitive Plasmodium falciparum 3D7 after 72 hrs by DAPI staining method; assay type: functional, organism-based; conditions: 3D7, 72 h
[6] = Cytotoxicity against human HEK293 cells at 120 uM after 72 hrs by Alamar blue assay; assay type: cell-based; conditions: read-out: GI

Structure (SMILES)	Activity [1] [%]	Activity [2] [%]	Activity [3]	IC50 [4] [µM]	IC50 [5] [µM]	inhibition at 72 h, 120 µM [6] [%]
COc1cc(O)c2c(c1O)-c1nccc(C)c1C2=O	87	80	Non-toxic			
COc1ccc2c(c1O)-c1nccc(C)c1C2=O				11.4	9.9	96
